Converted amounts (≈) assume the structure as drawn.
Legend:
Format in all cases: functional
Escherichia coli = assay: Antibacterial activity against Escherichia coli ATCC 25922 assessed as reduction in bacterial growth incubated for 18 hrs by CLSI based broth microdilution method
Nakaseomyces glabratus = assay: Antifungal activity against Candida glabrata ATCC 15126 assessed as reduction in bacterial growth incubated for 24 hrs by CLSI based broth microdilution method
Staphylococcus aureus [1] = assay: Antibacterial activity against methicillin-resistant Staphylococcus aureus ATCC 33591 assessed as reduction in bacterial growth incubated for 24 hrs by CLSI based broth microdilution method
Staphylococcus aureus [2] = assay: Antibacterial activity against Staphylococcus aureus ATCC 25923 assessed as reduction in bacterial growth incubated for 18 hrs by CLSI based broth microdilution method
[3] = system: Staphylococcus epidermidis; assay: Antibacterial activity against Staphylococcus epidermidis ATCC 14990 assessed as reduction in bacterial growth incubated for 18 hrs by CLSI based broth microdilution method

SMILES	MIC (Escherichia coli)	MIC (Nakaseomyces glabratus)	MIC (Staphylococcus aureus [1])	MIC (Staphylococcus aureus [2])	MIC [3]
CC[C@H](C)[C@@H]1NC(=O)[C@H](CCCNC(=N)N)NC(=O)[C@H](C)NC(=O)[C@H](NC(=O)[C@H](CO)NC(=O)[C@@H](NC(=O)[C@H](NC(=O)[C@@H](CCC(N)=O)NC(=O)[C@H](CO)NC(=O)[C@@H](NC(=O)[C@@H](Cc2ccccc2)NC)[C@@H](C)CC)[C@@H](C)CC)[C@@H](C)CC)CNC1=O	> 512 µg/mL	> 512 µg/mL	–	–	–
CCCC[C@@H]1NC(=O)[C@H](CCCNC(=N)N)NC(=O)[C@H](C)NC(=O)[C@H](NC(=O)[C@H](CO)NC(=O)[C@@H](NC(=O)[C@H](NC(=O)[C@@H](CCC(N)=O)NC(=O)[C@H](CO)NC(=O)[C@@H](NC(=O)[C@H](N)Cc2ccccc2)[C@@H](C)CC)[C@@H](C)CC)[C@@H](C)CC)CNC1=O	> 512 µg/mL	> 512 µg/mL	4 µg/mL (≈ 3.29 µM)	4 µg/mL (≈ 3.29 µM)	8 µg/mL (≈ 6.58 µM)
CC[C@H](C)[C@H](NC(=O)[C@H](N)Cc1ccccc1)C(=O)N[C@@H](CO)C(=O)N[C@H](CCC(N)=O)C(=O)N[C@@H](C(=O)N[C@H](C(=O)N[C@@H](CO)C(=O)N[C@@H]1CNC(=O)[C@H]([C@@H](C)CC)NC(=O)[C@H](CCCNC(=N)N)NC(=O)[C@H](C)NC1=O)[C@@H](C)CC)[C@@H](C)CC	> 512 µg/mL	> 512 µg/mL	–	–	–
CCCC[C@@H]1NC(=O)[C@H](CCCNC(=N)N)NC(=O)[C@H](C)NC(=O)[C@H](NC(=O)[C@H](CO)NC(=O)[C@@H](NC(=O)[C@H](NC(=O)[C@@H](CCC(N)=O)NC(=O)[C@H](CO)NC(=O)[C@@H](NC(=O)[C@@H](Cc2ccccc2)NC)[C@@H](C)CC)[C@@H](C)CC)[C@@H](C)CC)CNC1=O	> 512 µg/mL	> 512 µg/mL	–	–	–
CC[C@H](C)[C@H](NC(=O)[C@H](N)Cc1ccccc1)C(=O)N[C@@H](CO)C(=O)N[C@H](CCCNC(=N)N)C(=O)N[C@@H](C(=O)N[C@H](C(=O)N[C@@H](CO)C(=O)N[C@@H]1CNC(=O)[C@H]([C@@H](C)CC)NC(=O)[C@H](CCCNC(=N)N)NC(=O)[C@H](C)NC1=O)[C@@H](C)CC)[C@@H](C)CC	> 512 µg/mL	> 512 µg/mL	–	–	–

From ChEMBL document CHEMBL5390297, “New Teixobactin Analogues with a Total Lactam Ring” (2023)
